Source: publication PMC6905855, “Agonist-specific voltage-dependent gating of lysosomal two-pore Na^+ channels” (eLife, 2019)
Structures can show the parent of a compound that is named as a salt.

Columns and labels:
[1] = target: T1, surface-expressing mutant TPC2 channel (TPC2^LL/AA) in HEK293 cells (Homo sapiens, UniProt Q8NHX9, L11A/L12A); assay: Whole-cell recordings of ITPC2-LL/AA; type: cell-based; conditions: preliminary whole-cell test of positive LOPAC hits; HEK293 cells overexpressing TPC2 LL/AA; voltage ramp -140 to +100 mV (200 ms); measured at -140 mV
T1 construct: expressed in transfected cells; host or cells: HEK293
T1 sequence (Q8NHX9 whole entry L11A/L12A): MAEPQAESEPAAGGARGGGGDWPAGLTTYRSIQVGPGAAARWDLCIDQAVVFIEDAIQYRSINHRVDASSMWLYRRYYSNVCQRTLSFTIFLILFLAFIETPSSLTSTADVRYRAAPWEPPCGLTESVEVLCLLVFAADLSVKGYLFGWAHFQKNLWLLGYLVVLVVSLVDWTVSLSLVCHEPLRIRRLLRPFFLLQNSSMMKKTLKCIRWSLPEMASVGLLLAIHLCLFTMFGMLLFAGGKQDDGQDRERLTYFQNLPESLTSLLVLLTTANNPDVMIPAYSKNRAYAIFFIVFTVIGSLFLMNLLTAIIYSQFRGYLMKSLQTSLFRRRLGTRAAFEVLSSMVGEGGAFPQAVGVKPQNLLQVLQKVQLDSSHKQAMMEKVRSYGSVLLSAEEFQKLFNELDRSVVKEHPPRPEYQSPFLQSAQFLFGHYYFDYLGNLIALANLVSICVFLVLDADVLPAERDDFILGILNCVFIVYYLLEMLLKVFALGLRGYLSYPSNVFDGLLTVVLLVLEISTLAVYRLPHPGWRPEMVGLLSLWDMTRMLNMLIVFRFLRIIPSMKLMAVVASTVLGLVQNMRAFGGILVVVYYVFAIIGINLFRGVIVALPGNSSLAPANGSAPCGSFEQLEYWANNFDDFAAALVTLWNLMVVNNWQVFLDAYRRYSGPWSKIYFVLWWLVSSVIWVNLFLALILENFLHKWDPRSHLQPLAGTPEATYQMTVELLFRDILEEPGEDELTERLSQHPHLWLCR
Source text: We therefore characterized the responses of TPC2 channels to TCAs in detail using electrophysiological methods. We first performed whole-cell recordings in HEK293 cells that were transfected with surface-expressed TPC2 mutant channels (TPC2-L^11L^12-AA; abbreviated as TPC2^LL/AA hereafter).
All TPC1 and TPC2 mutants were generated with a site-directed mutagenesis kit (Qiagen) using EGFP- human TPC1 and TPC2 as the templates. All constructs were confirmed by DNA sequencing.
Cells were transfected with Lipofectamine 2000 (Invitrogen). After culture media were refreshed 18–24 hr post-transfection, cells were used for the electrophysiological assays 24–36 hr post-transfection.
All bath solutions were applied via a perfusion system that allowed complete solution exchange within a few seconds. […] Whole-cell currents were digitized at 10 kHz and filtered at 2 kHz.

[2] = target: T2, hTPC2 (Homo sapiens, UniProt Q8NHX9); assay: Whole-endolysosome recordings of ITPC2; type: biochemical; parameters: Whole endo-lysosomal TPC2 current activated by LyNa-VAs, Test 3 / Whole endo-lysosomal TPC2 current activated by LyNa-VAs, mean: unit not given here; conditions: 100uM; for Whole endo-lysosomal TPC2 current activated by LyNa-VAs, mean: mean of n tests
T2 construct: expressed in transfected cells; host or cells: Cos1 and HEK293
T2 sequence (Q8NHX9 whole entry): as the sequence (Q8NHX9 whole entry L11A/L12A) above, with A11L, A12L counted along it

Compound | I-TPC2 [1] | also measured
CN(C)c1cc2c(Nc3ccc4c(cnn4Cc4ccccc4)c3)ncnc2cn1 | No activation | 
C[N+](C)(C)CC#CCN1CCCC1=O | No activation | 
C#CCOC(=O)C1=CCCN(C)C1 [Arecaidine propargyl ester] | No activation | 
COC(=O)C1=CCCN(C)C1 [Arecoline] | No activation | 
CN(C)CCCN1c2ccccc2Sc2ccc(Cl)cc21 [Chlorpromazine hydrochloride] | >1500 pA | 
N=C(N)NC(=O)Cc1c(Cl)cccc1Cl [Guanfacine hydrochloride] | No activation | 
CN(C)C(=O)C(CCN1CCC(O)(c2ccc(Cl)cc2)CC1)(c1ccccc1)c1ccccc1 [Loperamide] | No activation | 
CN(C)CCCN1c2ccccc2CCc2ccccc21 [LyNa-VA1.3/imipramine] |  | Whole endo-lysosomal TPC2 current activated by LyNa-VAs, Test 1 ([2]; individual recording): 621.3; Whole endo-lysosomal TPC2 current activated by LyNa-VAs, Test 2 ([2]; individual recording): 343.9; Whole endo-lysosomal TPC2 current activated by LyNa-VAs, Test 3 ([2]; individual recording): 334.8; Whole endo-lysosomal TPC2 current activated by LyNa-VAs, mean [2]: 433.3
CNCCC=C1c2ccccc2CCc2ccccc21 [LyNa-VA1.5/nortriptyline] |  | Whole endo-lysosomal TPC2 current activated by LyNa-VAs, Test 1 ([2]; individual recording): 1814.6; Whole endo-lysosomal TPC2 current activated by LyNa-VAs, Test 2 ([2]; individual recording): 1075.1; Whole endo-lysosomal TPC2 current activated by LyNa-VAs, Test 3 ([2]; individual recording): 1937.9; Whole endo-lysosomal TPC2 current activated by LyNa-VAs, Test 4 ([2]; individual recording, Test 4): 2836.3; Whole endo-lysosomal TPC2 current activated by LyNa-VAs, mean [2]: 1916.0
CN(C)CCCN1c2ccccc2Sc2ccc(Cl)cc21 [LyNa-VA2.1/chlorpromazine] |  | Whole endo-lysosomal TPC2 current activated by LyNa-VAs, Test 1 ([2]; individual recording): 1013.4; Whole endo-lysosomal TPC2 current activated by LyNa-VAs, Test 2 ([2]; individual recording): 2019.9; Whole endo-lysosomal TPC2 current activated by LyNa-VAs, Test 3 ([2]; individual recording): 268.2; Whole endo-lysosomal TPC2 current activated by LyNa-VAs, mean [2]: 1100.5
CN(C)CCCN1c2ccccc2Sc2ccc(C(F)(F)F)cc21 [LyNa-VA2.2/triflupromazine] |  | Whole endo-lysosomal TPC2 current activated by LyNa-VAs, Test 1 ([2]; individual recording): 1572; Whole endo-lysosomal TPC2 current activated by LyNa-VAs, Test 2 ([2]; individual recording): 698; Whole endo-lysosomal TPC2 current activated by LyNa-VAs, Test 3 ([2]; individual recording): 681.2; Whole endo-lysosomal TPC2 current activated by LyNa-VAs, mean [2]: 983.7
C[C@@H]1O[C@H](C[N+](C)(C)C)C[C@H]1O [Muscarine] | No activation | 
CCCNCC(O)COc1ccccc1C(=O)CCc1ccccc1 (stereo not drawn) [Propafenone] | No activation | 
CN(C)CCCN1c2ccccc2Sc2ccc(C(F)(F)F)cc21 [Triflupromazine hydrochloride] | >1500 pA | 
CC(=O)NBr [n-Bromoacetamide] | No activation | 

More lines, main results first:

I-TPC2 [1] | Compound | also measured
~1000 pA | CN(C)CCC=C1c2ccccc2CCc2ccccc21 [Amitriptyline hydrochloride] | 
No activation | CC(C[N+](C)(C)C)OC(N)=O (stereo not drawn) [Bethanechol chloride] | 
No activation | C[N+](C)(C)CCOC(N)=O [Carbachol] | 
No activation | CN(C)CCC[C@@]1(c2ccc(F)cc2)OCc2cc(C#N)ccc21 [Escitalopram] | 
No activation | CC(=O)OC(C)C[N+](C)(C)C (stereo not drawn) [Methacholine chloride] | 
No activation | O=C(Nc1ccc([N+](=O)[O-])cc1Cl)c1cc(Cl)ccc1O [Niclosamide] | 
No activation | CN1Cc2c(N)cccc2C(c2ccccc2)C1 (stereo not drawn) [Nomifensine maleate] | 
~1000 pA | CNCCCC1c2ccccc2C=Cc2ccccc21 [Protriptyline hydrochloride] | 
No activation | CCN(CC)CCCC(C)Nc1c2ccc(Cl)cc2nc2ccc(OC)cc12 (stereo not drawn) [Quinacrine dihydrochloride dihydrate] | 
No activation | CC(C)(C)c1cc(/C=C(\C#N)C(N)=S)cc(C(C)(C)C)c1O [Tyrphostin AG 879] | 
No activation | N#C/C(=C\c1ccc(O)c(O)c1)C(=O)NCc1ccccc1 [Tyrphostin B42] | 
